Entries after “also recorded” stand apart in the source; their conditions may differ.
Columns and labels:
[1] = test system: Pkd1^flox/flox; Pax8rtTA; tet-OCre mice; test: Adult ADPKD model, complete loss of function (doxycycline-induced Pkd1 deletion); assay type: in vivo, mouse; conditions: for KW/BW ratio: p=0.03
Description: FIGS. 19A-19B: Ire1α inhibitor improves disease progression in an adult ADPKD model. Adult onset model with complete loss of function (Pkd1fl/fl;Pax8rtTA;tet-OCre). […]
The present study first tested toyocamycin in Pkd1^flox/flox; Pax8rtTA; tet-OCre mice. […] […] The present study recapitulated these findings in another slow progressing adult ADPKD model. A compound mutant model with a floxed Pkd1 allele in trans with a human pathogenic hR2220W (mR2216W) missense mutation that causes defects in PC1 GPS cleavage and trafficking was used. Pkd1^R2216W/flox line was crossed with either Pkhd1-Cre or Pax8rtTA; Tet-OCre to generate neonatal or adult doxycycline inducible lines respectively.

[2] = test system: Pkd1^R2216W/flox; Pkhd1-Cre mice; test: Neonatal ADPKD model with Pkd1 R2216W missense mutation in trans with floxed allele; assay type: in vivo, mouse
Method: Effect of toyocamycin were investigated in a relevant ADPKD model. For this a mouse model was constructed with a human Pkd1 missense mutation (R2216W) in trans with a floxed allele on a Pkhd1-Cre and Pax8-rtTA; tet-OCre background.
(§1) The present study first tested toyocamycin in Pkd1^flox/flox; Pax8rtTA; tet-OCre mice. Animals were given doxycycline water between P28 to P42 then treatment was started from week 6 until week 18 (0.5 mg/kg; once every 2 weeks; 6 i.p. injections). […] The present study recapitulated these findings in another slow progressing adult ADPKD model. A compound mutant model with a floxed Pkd1 allele in trans with a human pathogenic hR2220W (mR2216W) missense mutation that causes defects in PC1 GPS cleavage and trafficking was used. Pkd1^R2216W/flox line was crossed with either Pkhd1-Cre or Pax8rtTA; Tet-OCre to generate neonatal or adult doxycycline inducible lines respectively.

[3] = test system: Pkd1^R2216W/flox; Pax8rtTA; tet-OCre mice; test: Adult ADPKD model with Pkd1 R2216W missense mutation in trans with floxed allele; assay type: in vivo, mouse
Method: In order to examine whether this drug leads to disease modifying effects in the adult counterpart of this model, Pkd1^RW/fl; Pax8^rtTA; Tet-OCre mice were generated. In this mice the Cre recombinase is turned on throughout the nephron (except for the PT S3 segment) using a doxycycline inducible system. The mice received doxycycline in the drinking water from P28-P42to induce Cre and inactivate Pkd1 and were then injected with toyocamycin once every 2weeks starting at 6 weeks of age.
as §1
Finally, the present study examined the status of apoptosis in kidneys isolated from Pkd1^R2216W/flox; Pax8rtTA; tet-OCre mice treated with toyocamycin between week 12 to 18 (FIG. 34). […] Finally, the present study set forth to examine whether the effect seen in mice can be recapitulated with a relevant cell line model. Although cell line models for PKD are average mimics of the animal models, they do provide opportunities for a closer look at mechanisms of genotype-phenotype relationships in the context of programmed cell death. The present study used a previously described cell line i.e. PN24; Pkd1^−/−) as the starting point for inactivation of XBP1 via CRISPR/Cas9. At baseline, no differences in cell viability among the 3 genotypes i.e. Pkd1^het, Pkd1^−/−, and Pkd1/XBP1 DKO were observed. The present study then compared the response of Pkd1^+/−, Pkd1^−/−, and Pkd1/XBP1 DKO cells to a sensitized background induced by treatment with 11β-dichloro, an ROS inducer.

cystic cell = test: Cystic cell viability (FIGS. 18A-18B); assay type: cell-based
PKD mice = PKD mice / preclinical models, model not further specified; assay type: in vivo, mouse
Method: FIGS. 22A-22C: Irela inhibitor prevents cyst growth in preclinical models.
FIG. 36: Gene inactivation between P28 and P42. Treatment (0.5 mg/kg; 1×/2 wks) between 6-18 weeks of age.
The basal activity of spliced active XBP1s appears to be a protective survival factor for PC1-null cells that form cysts. […] Thus, specific pharmacological inhibition of the endoribonuclease activity of IRE1α, by inhibiting its ability to splice XBP1 to active XBP1s, should be beneficial in slowing cyst growth in ADPKD. This hypothesis was tested pharmacologically by inhibiting IRE1α endoribonuclease activity using toyocamycin, which is a potent IRE1α endoribonuclease inhibitor.

[4] = target: Ire1α endoribonuclease activity (Homo sapiens, UniProt O75460); conditions: cited from earlier work
Ire1α endoribonuclease activity, sequence (O75460 19-977): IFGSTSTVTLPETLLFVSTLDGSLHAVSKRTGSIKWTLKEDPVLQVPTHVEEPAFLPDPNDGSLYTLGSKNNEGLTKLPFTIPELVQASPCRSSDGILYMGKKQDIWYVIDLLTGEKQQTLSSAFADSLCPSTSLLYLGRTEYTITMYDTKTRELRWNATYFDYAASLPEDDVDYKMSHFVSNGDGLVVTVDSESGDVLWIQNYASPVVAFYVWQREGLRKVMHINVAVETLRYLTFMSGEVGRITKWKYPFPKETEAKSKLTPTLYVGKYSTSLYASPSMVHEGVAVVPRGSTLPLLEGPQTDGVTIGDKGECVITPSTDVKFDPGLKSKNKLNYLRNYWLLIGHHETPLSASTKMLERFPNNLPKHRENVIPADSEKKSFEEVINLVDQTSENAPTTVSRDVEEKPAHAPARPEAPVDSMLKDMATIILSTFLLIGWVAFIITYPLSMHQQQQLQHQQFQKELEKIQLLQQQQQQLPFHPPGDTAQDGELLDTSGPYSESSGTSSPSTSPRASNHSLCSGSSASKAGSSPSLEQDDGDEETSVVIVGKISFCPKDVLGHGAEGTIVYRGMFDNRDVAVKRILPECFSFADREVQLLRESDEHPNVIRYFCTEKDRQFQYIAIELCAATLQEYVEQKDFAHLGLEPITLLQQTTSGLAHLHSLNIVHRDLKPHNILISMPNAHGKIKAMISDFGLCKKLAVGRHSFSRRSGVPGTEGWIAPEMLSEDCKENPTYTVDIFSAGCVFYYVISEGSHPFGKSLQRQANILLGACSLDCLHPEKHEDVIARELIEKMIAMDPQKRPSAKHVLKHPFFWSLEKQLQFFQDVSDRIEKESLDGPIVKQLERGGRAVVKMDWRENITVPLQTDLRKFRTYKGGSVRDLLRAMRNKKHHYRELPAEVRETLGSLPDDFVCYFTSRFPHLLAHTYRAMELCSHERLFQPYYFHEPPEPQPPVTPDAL

IRE1α kinase activity = IRE1α kinase activity (Homo sapiens, UniProt O75460); conditions: Ri, et al., 2012; cited from earlier work
IRE1α kinase activity, sequence (O75460 19-977): as above

nucleotide incorporation = conditions: up to concentrations of 10 uM; cited from earlier work
[5] = Phase 1 trial; no changes in Hb, WBC, Pt, AP, SGOT and BUN; cited from earlier work
[6] = treatment from p9 to p16 (once/week), vs vehicle treated animals
[7] = 0.5 mg/kg i.p. once every 2 weeks, between week 6 and 18 (6 doses), p<0.001
[8] = mouse, in vivo, listed as Irela inhibitor

For `N#Cc1cn([C@@H]2O[C@H](CO)C(O)C2O)c2ncnc(N)c12` (stereo partly drawn) [toyocamycin, 4-Aminopyrrolo[2,3-d]pyrimidine-5-carbonitrile 7-(β-D-ribofuranoside)], the liver toxicity ([1]; 0.5 mg/kg IP, 1×/week, from 13 wks until 18 wks) was “does not cause liver toxicity”, the KW/BW ratio ([1]; 0.5 mg/kg every 2 weeks between 12 and 18, FIGS. 31A-31B) was “decrease” and the KW/BW ratio ([1]; 0.5 mg/kg i.p. once every 2 weeks, week 6 until week 18, vs untreated mice) was “significant decrease”. For the same compound, the disease progression ([1]; treatment from 6 to 18 weeks, started immediately after gene inactivation) was “improves”, the “disease at P16” value ([2]; 0.5 mg/kg at P10) was “significantly improved disease” and the KW/BW ratio ([2]; 1 dose 0.5 mg/kg i.p. at P10, assessed at P16, p<0.001) was “dramatic improvement”. The BUN ([2]; 1 dose 0.5 mg/kg i.p. at P10, assessed at P16, p<0.05) was “dramatic improvement”, the “cystic phenotype (morphological and functional parameters)” value ([2]; FIG. 6) was “dramatic improvement” and the “BUN (marker of kidney function)” value [2, 6] was “dramatic decrease”. The KW/BW ratio [2, 6] was “dramatic decrease”, the BUN [3, 7] was “almost a complete rescue; also recorded: dramatic improvement” and the KW/BW ratio [3, 7] was “almost a complete rescue; also recorded: dramatic improvement”. The cyst growth ([3]; 0.5 mg/kg, 1×/2 wks between 6-18 weeks of age) was “prevents”, the “apoptosis of cyst lining epithelia (TUNEL)” value ([3]; 0.5 mg/kg, 1×/2 wks, listed as Ire1α inhibitor) was “causes apoptosis” and the disease progression ([3]; once every 2 weeks starting at 6 weeks of age, vs vehicle treated animals) was “almost complete inhibition”. The “effect in cells where Cre is not expressed (selectivity)” value ([3]; preliminary analysis, data not shown) was “restricted to Pkd1 null segments”, the “apoptosis in kidneys (TUNEL)” value ([3]; treated between week 12 to 18, proximal tubules marked by LTA) was “specific TUNEL-positive signal in cyst lining cells” and the “levels of spliced XBP1 (qPCR)” value ([3]; treated vs. untreated mice, target engagement) was “lower; also recorded: decreased expression”. The “cystic phenotype (morphological and functional parameters)” value ([3]; treatment from 6 weeks until 18 weeks age, FIG. 7) was “dramatic improvement”, the body weight ([3]; untreated vs. treated animals, once every 2 weeks, week 6 to 18) was “did not differ” and the cystic cell viability (cystic cell) was “inhibits”. For the same compound, the “dependence of the effect on Ire1” value (PKD mice; FIG. 36, 0.5 mg/kg, 1×/2 wks between 6-18 weeks of age) was “depends on the presence of Ire1”, the “apoptosis in cyst cells with PC1 mutation” value (PKD mice; FIGS. 22A-22C) was “Enhanced apoptosis” and the “systemic toxicity (body weight)” value (PKD mice; FIGS. 22A-22C) was “No apparent systemic toxicity”. For the same compound, the collagen deposition (PKD mice; FIGS. 24A-24B) was “prevents”, the “BUN (kidney function)” value (PKD mice; mouse, in vivo) was “reduction” and the “kidney to body weight ratio” value (PKD mice; mouse, in vivo) was “dramatic reduction”. The serum creatinine (PKD mice; mouse, in vivo) was “reduction”, the “BUN (kidney function)” value (PKD mice; [8]) was “Normalized kidney function” and the “kidney to body weight ratio” value (PKD mice; [8]) was “Reduced cyst growth”. For the same compound, the “inhibition of IRE1α endoribonuclease activity” value ([4]; Ri, et al., 2012) was “potent inhibitor”, the IC50 ([4]; in vitro, read-out: IC50, inhibition of Ire1α endoribonuclease activity) was ~100 nM and the “inhibition of IRE1α kinase activity” value (IRE1α kinase activity) was “does not inhibit”. For the same compound, the “impact on nucleotide incorporation” value (nucleotide incorporation) was “without any impact” and the systemic side effects [5] was “no apparent systemic side effects”.
